Where “and” joins values, the source holds several entries; their conditions need not be identical. Equal values may be shown once.
Experiments:
P388 leukemia = test: in vivo ip P388 lymphocytic leukemia model; parameters: species or system B6D2F1 mice; details: maximum increase in lifespan, mice bearing ip P388 leukemia; slashes = separate experiments; ip Days 1 through 5; active if ≥25 percent
Protocol: This tumor system is widely accepted as an antitumor agent screening tool because it is sensitive to virtually all of the clinically active antineoplastic agents; quantitative and reproducible; amenable for large-scale screening; and predictive for activity in other animal tumor models.
10^6 P388 leukemia cells are inoculated ip in B6D2F1 mice. Twenty-four hours later, if the tumor inoculum proves to be free of bacterial contamination (as determined by 24 hours incubation in thioglycollate broth), animals are randomized into groups of 6 and housed in shoebox cages. The compound to be evaluated is dissolved in a minimal volume of either N,N-dimethylacetamide (DMA) or 95% ethanol (depending upon solubility). An equal volume of saline is added; if the drug comes out of solution an equal volume of polyethoxylated castor oil is added and then saline qs to a concentration such that the desired dose is delivered in 0.5 ml. The final concentration of DMA, ethanol and polyethoxylated castor oil is […]. Dilutions for lower doses are made with saline so there is a decreasing proportion of organic solvents in the vehicle with decreasing dosage. […] Fomulations are prepared immediately prior to injection. The compound is administered ip on Days 1 through 5 (i.e. treatment is initiated 24 hrs after tumor inoculation). Each experiment includes three groups of 6 animals as untreated controls and animals treated with a positive control, cisplatin, at two dose levels. Animals are weighed as a group on Days 1, 5 and 9 and average weight change (Δwt.) is used as a reflection of toxicity. Each experiment also includes an inoculum titration--groups of 8 mice inoculated ip with 10^5 to […] P388 leukemia cells. The titration is used to calculate cell kill achieved by treatment with drugs. Animals are monitored daily for mortality and experiments are terminated after 45 days. The endpoint is median survival time (MST) and increase in lifespan (ILS) which is the percentage of increase in MST relative to untreated controls.

[1] = maximally tolerated dose in mice, ip, P388 regimen (Table A); type: in vivo, mouse; details: mouse, in vivo, ip; maximally tolerated dose for B6D2F female mice, ipqDxs regimen (Days 1 through 5)
Protocol: (§1) 10^6 P388 leukemia cells are inoculated ip in B6D2F1 mice. Twenty-four hours later, if the tumor inoculum proves to be free of bacterial contamination (as determined by 24 hours incubation in thioglycollate broth), animals are randomized into groups of 6 and housed in shoebox cages. The compound to be evaluated is dissolved in a minimal volume of either N,N-dimethylacetamide (DMA) or 95% ethanol (depending upon solubility). An equal volume of saline is added; if the drug comes out of solution an equal volume of polyethoxylated castor oil is added and then saline qs to a concentration such that the desired dose is delivered in 0.5 ml. The final concentration of DMA, ethanol and polyethoxylated castor oil is […]. Dilutions for lower doses are made with saline so there is a decreasing proportion of organic solvents in the vehicle with decreasing dosage. These vehicles provide soluble formulations (or suspensions). Fomulations are prepared immediately prior to injection. The compound is administered ip on Days 1 through 5 (i.e. treatment is initiated 24 hrs after tumor inoculation). Each experiment includes three groups of 6 animals as untreated controls and animals treated with a positive control, cisplatin, at two dose levels. Animals are weighed as a group on Days 1, 5 and 9 and average weight change (Δwt.) is used as a reflection of toxicity. Each experiment also includes an inoculum titration--groups of 8 mice inoculated ip with 10^5 to […] P388 leukemia cells. The titration is used to calculate cell kill achieved by treatment with drugs. Animals are monitored daily for mortality and experiments are terminated after 45 days. The endpoint is median survival time (MST) and increase in lifespan (ILS) which is the percentage of increase in MST relative to untreated controls. Untreated controls inoculated ip with 10^6 P388 leukemia cells generally survive for a median of 9 to 11 days. A drug is considered active if it produces ≥25 percent ILS.
(§2) ^(a) maximally tolerated dose for B6D2F female mice on an ipqDxs

B6D2F female mice [2] = test: as above; type: in vivo, mouse; details: maximally tolerated dose for B6D2F female mice, ipqDxs regimen (Days 1 through 5)
Protocol: as §1, §2

[3] = tested on: M5076 reticulum cell sarcoma; test: intraperitoneally implanted M5076 reticulum cell sarcoma in mice; type: in vivo, B6D2F female mice; details: maximum increase in lifespan, mice bearing ip M5076; ip daily for ten days; active if ≥25% ILS
Protocol: (§3) Another chemosensitive tumor model is intraperitoneally (ip) implanted M5076 reticulum cell sarcoma in mice. In this system B6D2F female mice are inoculated with 0.5 ml of a 10 percent (w:v) brei of M5076 prepared from pooled subcutaneous (sc) tumors excised at about 21 days from C57B1/6 donors. Drugs are administered ip. Daily treatment is begun 24 hours after implantation and is continued for ten days. The treatment regimen for M5076 is more prolonged than for P388 because of the slower growth rate and longer control survival time of the M5076 tumor. A drug is considered active in this tumor model if it produces ≥25% ILS.

B16 melanoma = test: in vivo ip B16 melanoma assay; parameters: species or system B6D2F1 mice; details: maximum increase in lifespan, mice bearing ip B16 melanoma; slash = separate experiments; ip daily for ten days; active if ≥25%
Protocol: (§4) In this system, groups of eight B6D2F1 mice are inoculated ip with 0.5 ml of a 10% (w:v) brei of B15 melanoma prepared from pooled sc tumors excised at 14-21 days from […] donor mice. Daily treatment is begun 24 hours after tumor implantation and is continued daily for ten (10) days. The route of drug administration is ip. The mice are monitored daily for survival for sixty (60) days. Antitumor activity is assessed by prolongation of median survival time. An ILS of ≥25% indicates activity in this tumor model.

B6D2F female mice [4] = test: maximally tolerated dose in mice, ip qD × 10, M5076 (Table B); type: in vivo, mouse; details: maximally tolerated dose for B6D2F female mice
Protocol: as §3
^(b) maximally tolerated dose for B6D2F female mice on an ip qD

B6D2F1 mice = test: maximally tolerated dose in mice, ip qD × 10, B16 (Table C); type: in vivo, mouse; details: maximally tolerated dose for B6D2F1 mice
Protocol: as §4
^(b) maximally tolerated dose for B6D2F1 mice on an ip qD .times

Row | Compound | ILS (max) (P388 leukemia) | MTD [1] [mg/kg] | MTD (B6D2F female mice [2]) [mg/kg] | other results
1 | c1ccc(P(CCP(c2ccccc2)c2ccccc2)CCP(c2ccccc2)c2ccccc2)cc1 [Compound 6, bis(2-diphenylphosphinoethyl)phenylphosphine] | 80% and 50% | 32 | – | –
2 | c1ccc(P(CCP(CCP(c2ccccc2)c2ccccc2)CCP(c2ccccc2)c2ccccc2)c2ccccc2)cc1 [Compound 7, tris(diphenylphosphinoethyl)phosphine] | 35% and 30% | 64 | – | –
3 | c1ccc(P(CCP(CCP(c2ccccc2)c2ccccc2)c2ccccc2)CCP(c2ccccc2)c2ccccc2)cc1 (stereo not drawn) [Compound 8, 1,1,4,7,10,10-hexaphenyl-1,4,7,10-tetraphosphodecane] | 25% and 40% | 64 | – | –
4 | CC(CP(c1ccccc1)c1ccccc1)(CP(c1ccccc1)c1ccccc1)CP(c1ccccc1)c1ccccc1 [Compound 9, μ-[1,1,1-Tris(diphenylphosphinomethyl)ethane]] | 45% and 25% | 128 | – | –
5 | μ-[1,1,1-Tris(diphenylphosphinomethyl)ethane]tris(chlorogold) [Compound 5] | 40% and 30% | – | 20 | –
6 | μ-[1,1,4,7,10,10-Hexaphenyl-1,4,7,10-tetraphosphodecane]tetrakis(1-thio- β-D-glucopyranosato-S)gold [Compound 4] | 100% and 55% | – | 8 | –
7 | μ-[1,1,4,7,10,10-Hexaphenyl-1,4,7,10-tetraphosphodecane]tetrakis(chlorogold) [Compound 3] | – | – | 12 | ILS (MAX) [3]: 96%; ILS (B16 melanoma): 30% and 51%; MTD (B6D2F female mice [4]): 8 mg/kg; MTD (B6D2F1 mice): 6 mg/kg
8 | μ-[Bis(2-diphenylphosphinoethyl)phenylphosphine]tris(chlorogold) [Compound 1] | 30% and 40% | – | 8 | –
9 | μ-[Tris(2-diphenylphosphinoethyl)phosphine]tetrakis(chlorogold) [Compound 2] | 45% | – | 8 | –
